Where “and” joins values, the source holds several entries; their conditions need not be identical. Equal entries are not always repeated.

Assay type in all cases: physicochemical
Data set [1] is described as follows: % transmission spectrum of 0.1% solution (breakthrough, steepness). Conditions: for Steepness: distance in nm over which transmittance increases from 1 to 80%; for Breakthrough (1% T at 0.1%): value in nm where transmittance increases beyond 1%, 0.1% solution. The source says:
FIG. 2 is a is a graphical representation of the % transmission of compounds 142 and 143 measured in a 2 mm cuvette as 0.1% solutions in methanol (142 is the left most trace);
The synthesised benzoyl functionalised compounds and their spectroscopic properties can be seen in table 2 wherein; breakthrough denotes the value in nm where transmittance increases beyond 1%; steepness refers to the distance in nm over which transmittance increases from 1 to 80% (a higher value indicates a less steep transition from absorbing to transmitting and is generally unfavourable); and ^a denotes an average of multiple measurements. As a general comment, it can be noted that the benzoyl substituted compounds gave similar absorbance maxima to the corresponding trifluoroacetyl derivative.

Data set [2] in a line: UV absorbance spectrum in solution (λmax, λcrit, extinction coefficients). Conditions: for λcrit: critical wavelength; for E (1%, 1 cm): mass extinction coefficient; for ε: molar extinction coefficient, in M-1 cm-1 (unit assumed). In a few lines:
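Spectra taken on 0.001% solutions in methanol, 10 mm path. Breakthrough is the wavelength where transmittance rises above 1%; steepness is the nm span over which transmittance goes from 1 to 80%.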

Data set [3] is described as follows: Photostability protocol: thin film irradiated with xenon arc lamp. Conditions: 1 hour xenon arc lamp, ratio of absorbance at λmax irradiated vs unirradiated, ^a = average of multiple measurements. As to the method:
1 mL of a 3% solution of the test compound (30 mg of test compound in 1 mL solvent) was prepared in a solvent mix made up of 50% EtOH and 25% capric/caprylic triglyceride and 25% C12-C15 alkyl benzoate. 50 μL of this solution (containing 1.5 mg of test compound) was added carefully to the centre of a glass microscope slide and the volatile components left to evaporate in the dark for at least 3 hours to give a liquid film. The prepared films were then exposed for 1 hour to an Eimac 150 W xenon arc lamp filtered through Pyrex (15 Amp supply current, samples 19 cm from the lamp) previously allowed to warm up for 15 minutes prior to sample exposure. The irradiation was performed in a fume cupboard where the air flow was sufficient to keep sample T<30° C. One hour's exposure represented a calculated radiation dose (using meter) of approximately 100 MED.
In order to calculate the photostability of the test compounds, the exposed slides were placed in a beaker and rinsed with 2×5 mL EtOH, 1×5 mL MeOH. The combined washings were then added to a 100 mL volumetric flask and made up to 100 mL total volume with methanol. The UV absorbance was then measured in a 10 mm cuvette. The percent stability is measured as the ratio of absorbance at λmax for the irradiated sample compared to the unirradiated sample.
The thin films are a good surrogate for testing the stability of a candidate in, for example, a sunscreen formulation as they use cosmetic emollients as solvent and are formed at cosmetically relevant concentrations.

On to `CN(C)C(=O)C(=O)/C(=C/N(c1ccccc1)c1ccccc1)c1ccccc1` [Compound 257], for which, in data set [1], the Steepness worked out at 32 nm and the “Breakthrough (1% T at 0.1%)” value is given as 394 nm. In data set [2], the λmax was determined as 346 nm; the λcrit was 378 nm; the “E (1%, 1 cm)” value amounted to 382; the ε was found to be 14163. The Photostability in data set [3] amounted to 85%.

In the case of `CN(C)C(=O)C(=O)/C(=C\N1CCc2ccccc21)c1ccccc1` [Compound 258], in data set [1], the Steepness came to 23 nm and the “Breakthrough (1% T at 0.1%)” value is 409 nm. For the same compound, in data set [2], the λmax is recorded as 359 nm; the λcrit is 384 nm; the “E (1%, 1 cm)” value is reported as 1045; the ε is given as 33443. Besides, the Photostability in data set [3] was 63%.

Take `CCN(/C=C(\C(=O)C(=O)N(C)C)c1ccccc1)c1ccccc1` [Compound 259]: in data set [1], the Steepness was found to be 34 nm and the “Breakthrough (1% T at 0.1%)” value was 378 nm. Moreover, in data set [2], the λmax amounted to 326 nm; the λcrit turned out to be 365 nm; the “E (1%, 1 cm)” value was determined as 724; the ε came to 23336. In data set [3], the Photostability was found to be 66%.

Turning to `CCOC(=O)C(=O)/C(=C/N(CC)CC)c1ccccc1` [Compound 260], in data set [1], the Steepness turned out to be 38 nm and the “Breakthrough (1% T at 0.1%)” value turned out to be 363 nm. For the same compound, in data set [2], the λmax was determined as 313 nm; the λcrit worked out at 352 nm; the “E (1%, 1 cm)” value is reported as 726; the ε is 19983. Also, the Photostability in data set [3] is recorded as 40%.

For the compound `CCN(/C=C(/C(=O)C(=O)N(C)C)c1ccccc1)CC` [Compound 261], in data set [1], the Steepness is reported as 28 nm and the “Breakthrough (1% T at 0.1%)” value turned out to be 355 nm. Besides, in data set [2], the λmax came out at 310 nm; the λcrit worked out at 342 nm; the “E (1%, 1 cm)” value turned out to be 844; the ε is given as 23144. Moreover, in data set [3], the Photostability amounted to 63%.

As for `CCN(/C=C(/C(=O)c1ccc(S(=O)(=O)N(C)C)cc1)c1ccccc1)c1ccccc1` [Compound 264], in data set [1], the Steepness was 46 nm and the “Breakthrough (1% T at 0.1%)” value was found to be 403 nm. Moreover, in data set [2], the λmax is recorded as 340 nm; the λcrit is on record as 381 nm; the “E (1%, 1 cm)” value came out at 433; the ε is 18791. Besides, the Photostability in data set [3] is on record as 20%.

For the compound `CC(C)(C)OC(=O)C(=O)/C(=C/N1CCc2ccccc21)c1ccccc1` [Compound 267], in data set [1], the Steepness was 32 nm and the “Breakthrough (1% T at 0.1%)” value turned out to be 417 nm. For the same compound, in data set [2], the λmax was found to be 366 nm; the λcrit came out at 389 nm; the “E (1%, 1 cm)” value stood at 940; the ε amounted to 32824. Also, in data set [3], the Photostability is 76%.

Turning to `CCN(/C=C(/C(=O)c1ccccc1)c1ccccc1)CC` [Compound 268], in data set [1], the Steepness turned out to be 48 nm and the “Breakthrough (1% T at 0.1%)” value is recorded as 374 nm. Moreover, in data set [2], the λmax is recorded as 312 nm; the λcrit was 360 nm; the “E (1%, 1 cm)” value is 656; the ε is 18293. The Photostability in data set [3] was 10%.

For the compound `COC(=O)c1ccc2c(c1)CCN2/C=C(/C(=O)C(=O)OC(C)(C)C)c1ccccc1` [Compound 269], in data set [1], the Steepness came out at 26 nm and the “Breakthrough (1% T at 0.1%)” value was 419 nm. In data set [2], the λmax turned out to be 374 nm; the λcrit turned out to be 391 nm; the “E (1%, 1 cm)” value worked out at 1033; the ε is listed as 42074. Moreover, the Photostability in data set [3] is 94% and 94^a % and 98% and 91%.

`CC(C)(C)OC(=O)C(=O)/C(=C/N(c1ccccc1)c1ccccc1)c1ccccc1` [Compound 270]: in data set [1], the Steepness came out at 35 nm and the “Breakthrough (1% T at 0.1%)” value is 400 nm. In data set [2], the λmax came to 349 nm; the λcrit was determined as 381 nm; the “E (1%, 1 cm)” value worked out at 551; the ε is recorded as 22023. In data set [3], the Photostability is on record as 89%.

Turning to `CCN(/C=C(/C(=O)C(=O)OC(C)(C)C)c1ccccc1)c1ccccc1` [Compound 271], in data set [1], the Steepness is 36 nm and the “Breakthrough (1% T at 0.1%)” value is reported as 381 nm. In addition, in data set [2], the λmax is recorded as 332 nm; the λcrit was 366 nm; the “E (1%, 1 cm)” value is 530; the ε is given as 18592. In data set [3], the Photostability was 75%.

As to `Cc1ccc(C(=O)/C(=C/N2CCc3ccccc32)c2ccccc2)cc1` [Compound 272], in data set [1], the Steepness amounted to 35 nm and the “Breakthrough (1% T at 0.1%)” value worked out at 421 nm. For the same compound, in data set [2], the λmax is 362 nm; the λcrit is reported as 386 nm; the “E (1%, 1 cm)” value came out at 887; the ε came to 30075. Also, in data set [3], the Photostability is reported as 80%.

For `CCN(/C=C(/C(=O)c1ccc(C)cc1)c1ccccc1)c1ccccc1` [Compound 273], in data set [1], the Steepness is 37 nm and the “Breakthrough (1% T at 0.1%)” value is listed as 394 nm. For the same compound, in data set [2], the λmax is recorded as 336 nm; the λcrit is reported as 376 nm; the “E (1%, 1 cm)” value was 614; the ε is recorded as 20922. The Photostability in data set [3] is 73%.

For the compound `Cc1ccc(C(=O)/C(=C/N(c2ccccc2)c2ccccc2)c2ccccc2)cc1` [Compound 274], in data set [1], the Steepness is on record as 42 nm and the “Breakthrough (1% T at 0.1%)” value was 411 nm. In addition, in data set [2], the λmax is listed as 353 nm; the λcrit is on record as 384 nm; the “E (1%, 1 cm)” value came to 420; the ε stood at 16369. For the same compound, the Photostability in data set [3] is recorded as 76%.

For the compound `COc1ccccc1C(=O)/C(=C/N1CCc2ccccc21)c1ccccc1` [Compound 275], in data set [1], the Steepness came out at 30 nm and the “Breakthrough (1% T at 0.1%)” value was determined as 406 nm. Further, in data set [2], the λmax is recorded as 358 nm; the λcrit is on record as 383 nm; the “E (1%, 1 cm)” value is recorded as 1074; the ε was 38139. Also, in data set [3], the Photostability is 56%.

Turning to `CCN(/C=C(/C(=O)c1ccccc1OC)c1ccccc1)c1ccccc1` [Compound 276], in data set [1], the Steepness is 40 nm and the “Breakthrough (1% T at 0.1%)” value was found to be 379 nm. For the same compound, in data set [2], the λmax came out at 327 nm; the λcrit is on record as 366 nm; the “E (1%, 1 cm)” value was 711; the ε is 25385. Also, the Photostability in data set [3] is 56%.

`O=C(C(=O)N1CCc2ccccc21)/C(=C/N1CCc2ccccc21)c1ccccc1` [Compound 277]: in data set [1], the Steepness is given as 26 nm and the “Breakthrough (1% T at 0.1%)” value was found to be 414 nm. For the same compound, in data set [2], the λmax was 365 nm; the λcrit was 388 nm; the “E (1%, 1 cm)” value is given as 872; the ε was 34350. Besides, in data set [3], the Photostability came out at 95%.

For `CCCCC(CC)COC(=O)C(=O)/C(=C/N1CCc2cc(C(=O)OC)ccc21)c1ccccc1` (centres unmarked) [Compound 278], in data set [1], the Steepness was found to be 30 nm and the “Breakthrough (1% T at 0.1%)” value is listed as 418 nm. Also, in data set [2], the λmax is given as 372 nm; the λcrit was 391 nm; the “E (1%, 1 cm)” value was found to be 953; the ε is recorded as 44118. For the same compound, the Photostability in data set [3] was found to be 88%.

Regarding `COC(=O)c1ccc2c(c1)CCN2/C=C(/C(=O)C(=O)OC(C)(C)C(=O)OC)c1ccccc1` [Compound 279], in data set [1], the Steepness was 32 nm and the “Breakthrough (1% T at 0.1%)” value worked out at 412 nm. In addition, in data set [2], the λmax is recorded as 368 nm; the λcrit turned out to be 386 nm; the “E (1%, 1 cm)” value was 1304; the ε is listed as 58842. The Photostability in data set [3] came to 32%.

As to `COC(=O)c1ccc2c(c1)CCN2/C=C(/C(=O)C(=O)OC(C)(C)c1ccccc1)c1ccccc1` [Compound 280], in data set [1], the Steepness was 21 nm and the “Breakthrough (1% T at 0.1%)” value is listed as 384 nm. In addition, in data set [2], the λmax was determined as 357 nm; the λcrit is on record as 370 nm; the “E (1%, 1 cm)” value was 1440; the ε was found to be 67567. Moreover, the Photostability in data set [3] came out at 68%.

The record behind these values is patent US11512042B2, “Enamine compounds for absorbance of electromagnetic energy” (Commonwealth Scientific and Industrial Research Organisation, priority 2015, dated 2022).
